Measurements taken from patent publication EP4810052A2, “HCRHR2 SELECTIVE POLYPEPTIDES” (Gubra A/S, priority 2023, dated 2026).
Starred links: 1 amine or outer side, 2 acyl side, 3 side chain; linkers in the order of their positions; H or OH if unused. Non-standard residues stand in square brackets, D forms with d. Residues, ends and D or L forms follow the SMILES beside them. Groups on a side chain read outwards from the residue. *: point of attachment. C20 diacid = O=C(O)CCCCCCCCCCCCCCCCCCC(=O)*; γGlu = O=C(O)[C@H](CCC(=O)[*:2])N[*:1]; NMeI = CC[C@H](C)[C@H](NC)C(=O)O; AEEA = NCCOCCOCC(=O)O

Molecular target: T1, hCRHR2 (Homo sapiens, UniProt Q13324)
T1 sequence (Q13324 1-411): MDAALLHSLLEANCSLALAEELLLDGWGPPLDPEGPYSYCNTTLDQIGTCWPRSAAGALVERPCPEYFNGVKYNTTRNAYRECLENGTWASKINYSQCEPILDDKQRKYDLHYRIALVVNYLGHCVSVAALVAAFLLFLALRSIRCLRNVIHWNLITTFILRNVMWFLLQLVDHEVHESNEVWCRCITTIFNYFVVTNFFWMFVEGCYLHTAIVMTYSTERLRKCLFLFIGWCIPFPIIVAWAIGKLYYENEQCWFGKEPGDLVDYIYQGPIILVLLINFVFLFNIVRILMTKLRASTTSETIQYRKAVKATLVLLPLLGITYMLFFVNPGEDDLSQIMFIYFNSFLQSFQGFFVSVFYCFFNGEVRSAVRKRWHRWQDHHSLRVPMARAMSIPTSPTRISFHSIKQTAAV
Experiment: HTRF cAMP assay, determination of hCRHR2 potency (peptide libraries 5 conc., purified peptides 11 conc.)
Assay type: cell-based
Details: for Selectivity ratio (hCRHR1/ hCRHR2): hCRHR1-EC50/hCRHR2-EC50; for EC50: purified peptides, CHO-K1 cells stably expressing hCRHR2, cAMP HTRF, read-out: hCRHR2 EC50
Text: HTRF (CisBio) cAMP assay: The assay technology has thoroughly been described in the CisBio HTRF cAMP assay Kit manual (# 62AM4PEC). Briefly, time resolved fluorescence technic was applied to measure cAMP. This technic is based on a competitive immunoassay using cryptate-labelled anti-cAMP antibody and d2-labeled cAMP. In the absence of cellular cAMP, the anti-cAMP cryptate conjugate may get into proximity to cAMP-d2 conjugate and energy (FRET) can be transferred from cryptate to d2.
CHO-K1 cells stably expressing the human corticotropin-releasing hormone receptor 2 (Eurofins/DiscoverX, Cat #95-0048C2 hCRHR2 stable monoclonal cell lines) were used as cells in suspension, brought to life from frozen cell stocks immediately before assay performance.
Concentration-response evaluation of compounds was performed with 5 concentrations of agonist peptides and EC50 values were calculated by nonlinear regression using sigmoid concentration-response with variable slope.
Concentration-response evaluation of compounds was performed with 11 concentrations of agonist peptides and EC50 values were calculated by nonlinear regression using sigmoid concentration-response with variable slope.

Row | Compound | Selectivity ratio (hCRHR1/ hCRHR2) | EC50 [nM]
1 | CC[C@H](C)[C@H](NC)C(=O)N[C@H](C(=O)N[C@H](C(=O)N[C@@H](CO)C(=O)N[C@@H](CC(C)C)C(=O)N[C@@H](CC(=O)O)C(=O)N[C@H](C(=O)N1CCC[C@H]1C(=O)N[C@H](C(=O)NCC(=O)N[C@@H](CC(C)C)C(=O)N[C@@H](CC(C)C)C(=O)N[C@@H](CCC(N)=O)C(=O)N[C@H](C(=O)N[C@@H](CC(C)C)C(=O)N[C@@H](CC(C)C)C(=O)N[C@@H](CCC(=O)O)C(=O)N[C@@H](CCC(N)=O)C(=O)N[C@@H](CCC(=O)O)C(=O)N[C@@H](CCCCN)C(=O)N[C@@H](CCC(N)=O)C(=O)N[C@@H](CCC(=O)O)C(=O)N[C@@H](CCCCN)C(=O)N[C@@H](CCC(=O)O)C(=O)N[C@@H](CCCCN)C(=O)N[C@@H](CCC(N)=O)C(=O)N[C@@H](CCC(N)=O)C(=O)N[C@@H](C)C(=O)N[C@@H](CCCCNC(=O)COCCOCCNC(=O)COCCOCCNC(=O)CC[C@H](NC(=O)CC[C@H](NC(=O)CCCCCCCCCCCCCCCCCCC(=O)O)C(=O)O)C(=O)O)C(=O)N[C@H](C(=O)N[C@@H](CC(N)=O)C(=O)N[C@@H](C)C(=O)N[C@@H](CCC(=O)O)C(=O)N[C@H](C(=O)N[C@@H](CC(C)C)C(=O)N[C@@H](C)C(=O)N[C@@H](CCC(N)=O)C(=O)N[C@H](C(N)=O)C(C)C)[C@@H](C)CC)[C@@H](C)O)[C@@H](C)CC)[C@@H](C)CC)C(C)C)[C@@H](C)O)C(C)C [SEQ ID NO: 10, reference compound] (H-[NMeI]VTSLDVPIGLLQILLEQEKQEKEKQQAK([AEEA-AEEA-γGlu-γGlu-C20 diacid])TNAEILAQV-NH2) | 139 | 0.49
2 | CC[C@H](C)[C@H](NC(=O)[C@H](CCC(=O)O)NC(=O)[C@H](C)NC(=O)[C@H](CC(N)=O)NC(=O)[C@@H](NC(=O)[C@@H](NC(=O)[C@H](C)NC(=O)[C@H](CCC(N)=O)NC(=O)[C@H](CCC(=O)O)NC(=O)[C@H](CCCNC(=N)N)NC(=O)[C@H](C)NC(=O)[C@H](C)NC(=O)[C@H](CCCNC(=N)N)NC(=O)[C@H](C)NC(=O)[C@H](CCCNC(=N)N)NC(=O)[C@H](C)NC(=O)[C@H](CCC(N)=O)NC(=O)[C@H](CCC(=O)O)NC(=O)[C@H](CC(C)C)NC(=O)[C@H](CC(C)C)NC(=O)[C@@H](NC(=O)[C@H](CCC(N)=O)NC(=O)[C@H](CC(C)C)NC(=O)[C@H](CC(C)C)NC(=O)CNC(=O)[C@@H](NC(=O)[C@@H]1CCCN1C(=O)[C@@H](NC(=O)[C@H](CC(=O)O)NC(=O)[C@H](CC(C)C)NC(=O)[C@H](CO)NC(=O)[C@H](CC(C)C)NC(=O)[C@@H](NC(=O)[C@@H](NC(=O)[C@@H](N)CCCCNC(=O)COCCOCCNC(=O)COCCOCCNC(=O)CC[C@H](NC(=O)CC[C@H](NC(=O)CC[C@H](NC(=O)CCCCCCCCCCCCCCCCCCC(=O)O)C(=O)O)C(=O)O)C(=O)O)[C@@H](C)CC)C(C)C)C(C)C)[C@@H](C)CC)[C@@H](C)CC)[C@@H](C)O)[C@@H](C)O)C(=O)N[C@@H](CC(C)C)C(=O)N[C@@H](C)C(=O)N[C@@H](CCC(=O)O)C(=O)N[C@H](C(N)=O)C(C)C [SEQ ID NO: 11, reference compound] (H-K([AEEA-AEEA-γGlu-γGlu-γGlu-C20 diacid])IVLSLDVPIGLLQILLEQARARAAREQATTNAEILAEV-NH2) | 419 | 1.6
3 | CC[C@H](C)[C@H](NC)C(=O)N[C@H](C(=O)N[C@@H](CC(C)C)C(=O)N[C@@H](CO)C(=O)N[C@@H](CC(C)C)C(=O)N[C@@H](CC(=O)O)C(=O)N[C@H](C(=O)N1CCC[C@H]1C(=O)N[C@H](C(=O)NCC(=O)N[C@@H](CC(C)C)C(=O)N[C@@H](CC(C)C)C(=O)N[C@@H](CCC(N)=O)C(=O)N[C@H](C(=O)N[C@@H](CC(C)C)C(=O)N[C@@H](CC(C)C)C(=O)N[C@@H](CCC(=O)O)C(=O)N[C@@H](CCC(N)=O)C(=O)N[C@@H](CCC(=O)O)C(=O)N[C@@H](CCCCN)C(=O)N[C@@H](CCC(N)=O)C(=O)N[C@@H](CCC(=O)O)C(=O)N[C@@H](CCCCN)C(=O)N[C@@H](CCC(=O)O)C(=O)N[C@@H](CCCCN)C(=O)N[C@@H](CCC(N)=O)C(=O)N[C@@H](CCC(N)=O)C(=O)N[C@@H](C)C(=O)N[C@@H](CCCCNC(=O)COCCOCCNC(=O)COCCOCCNC(=O)CC[C@H](NC(=O)CC[C@H](NC(=O)CCCCCCCCCCCCCCCCCCC(=O)O)C(=O)O)C(=O)O)C(=O)N[C@H](C(=O)N[C@@H](CC(N)=O)C(=O)N[C@@H](C)C(=O)N[C@@H](CCC(N)=O)C(=O)N[C@H](C(=O)N[C@@H](CC(C)C)C(=O)N[C@@H](C)C(=O)N[C@@H](CCC(N)=O)C(=O)N[C@H](C(N)=O)C(C)C)[C@@H](C)CC)[C@@H](C)O)[C@@H](C)CC)[C@@H](C)CC)C(C)C)C(C)C [SEQ ID NO: 9, reference compound] (H-[NMeI]VLSLDVPIGLLQILLEQEKQEKEKQQAK([AEEA-AEEA-γGlu-γGlu-C20 diacid])TNAQILAQV-NH2) | 392 | 1.3

Now from value to compound:

Row | Selectivity ratio (hCRHR1/ hCRHR2) | EC50 [nM] | Compound
4 | 400 | 1.4 | CC[C@H](C)[C@H](NC(C)=O)C(=O)N[C@H](C(=O)N[C@@H](CC(C)C)C(=O)N[C@@H](CO)C(=O)N[C@@H](CC(C)C)C(=O)N[C@@H](CC(=O)O)C(=O)N[C@H](C(=O)N1CCC[C@H]1C(=O)N[C@H](C(=O)NCC(=O)N[C@@H](CC(C)C)C(=O)N[C@@H](CC(C)C)C(=O)N[C@@H](CCC(N)=O)C(=O)N[C@H](C(=O)N[C@@H](CC(C)C)C(=O)N[C@@H](CC(C)C)C(=O)N[C@@H](CCC(=O)O)C(=O)N[C@@H](CCC(N)=O)C(=O)N[C@@H](C)C(=O)N[C@@H](CCCNC(=N)N)C(=O)N[C@@H](C)C(=O)N[C@@H](CCCNC(=N)N)C(=O)N[C@@H](C)C(=O)N[C@@H](C)C(=O)N[C@@H](CCCNC(=N)N)C(=O)N[C@@H](CCC(=O)O)C(=O)N[C@@H](CCC(N)=O)C(=O)N[C@@H](C)C(=O)N[C@@H](CCCCNC(=O)COCCOCCNC(=O)COCCOCCNC(=O)CC[C@H](NC(=O)CC[C@H](NC(=O)CCCCCCCCCCCCCCCCCCC(=O)O)C(=O)O)C(=O)O)C(=O)N[C@H](C(=O)N[C@@H](CC(N)=O)C(=O)N[C@@H](C)C(=O)N[C@@H](CCC(=O)O)C(=O)N[C@H](C(=O)N[C@@H](CC(C)C)C(=O)N[C@@H](C)C(=O)N[C@@H](CCC(=O)O)C(=O)N[C@H](C(N)=O)C(C)C)[C@@H](C)CC)[C@@H](C)O)[C@@H](C)CC)[C@@H](C)CC)C(C)C)C(C)C [SEQ ID NO: 8] (Ac-IVLSLDVPIGLLQILLEQARARAAREQAK([AEEA-AEEA-γGlu-γGlu-C20 diacid])TNAEILAEV-NH2)
5 | 79 | 1.4 | CC[C@H](C)[C@H](NC(=O)COCCOCCNC(=O)COCCOCCNC(=O)CC[C@H](NC(=O)CC[C@H](NC(=O)CCCCCCCCCCCCCCCCCCC(=O)O)C(=O)O)C(=O)O)C(=O)N[C@H](C(=O)N[C@@H](CC(C)C)C(=O)N[C@@H](CO)C(=O)N[C@@H](CC(C)C)C(=O)N[C@@H](CC(=O)O)C(=O)N[C@H](C(=O)N1CCC[C@H]1C(=O)N[C@H](C(=O)NCC(=O)N[C@@H](CC(C)C)C(=O)N[C@@H](CC(C)C)C(=O)N[C@@H](CCC(N)=O)C(=O)N[C@H](C(=O)N[C@@H](CC(C)C)C(=O)N[C@@H](CC(C)C)C(=O)N[C@@H](CCC(=O)O)C(=O)N[C@@H](CCC(N)=O)C(=O)N[C@@H](C)C(=O)N[C@@H](CCCNC(=N)N)C(=O)N[C@@H](C)C(=O)N[C@@H](CCCNC(=N)N)C(=O)N[C@@H](C)C(=O)N[C@@H](C)C(=O)N[C@@H](CCCNC(=N)N)C(=O)N[C@@H](CCC(=O)O)C(=O)N[C@@H](CCC(N)=O)C(=O)N[C@@H](C)C(=O)N[C@H](C(=O)N[C@H](C(=O)N[C@@H](CC(N)=O)C(=O)N[C@@H](C)C(=O)N[C@@H](CCC(=O)O)C(=O)N[C@H](C(=O)N[C@@H](CC(C)C)C(=O)N[C@@H](C)C(=O)N[C@@H](CCC(=O)O)C(=O)N[C@H](C(N)=O)C(C)C)[C@@H](C)CC)[C@@H](C)O)[C@@H](C)O)[C@@H](C)CC)[C@@H](C)CC)C(C)C)C(C)C [SEQ ID NO: 260] ({C20 diacid-γGlu-γGlu-AEEA-AEEA}-IVLSLDVPIGLLQILLEQARARAAREQATTNAEILAEV-NH2)
